From patent US10208021B2, “Substituted tetrahydroisoquinoline compounds as factor XIa inhibitors” (BRISTOL-MYERS SQUIBB COMPANY, priority 2011, dated 2019)
Where a name gives a salt, the structure may show the parent alone.

Molecular target: purified human Factor XIa (Homo sapiens (Human), UniProt P03951)
Assay: Factor XIa chromogenic substrate (S-2366) inhibition assay
Type: biochemical
Experimental: The effectiveness of compounds of the present invention as inhibitors of the coagulation factors XIa, VIIa, IXa, Xa, XIIa, plasma kallikrein or thrombin, can be determined using a relevant purified serine protease, respectively, and an appropriate synthetic substrate. The rate of hydrolysis of the chromogenic or fluorogenic substrate by the relevant serine protease was measured both in the absence and presence of compounds of the present invention. […] A decrease in the rate of absorbance or fluorescence change in the presence of inhibitor is indicative of enzyme inhibition. Such methods are known to one skilled in the art. The results of this assay are expressed as the inhibitory constant, Ki. […] JT Baker or Fisher Scientific). […] Values of Ki were determined by allowing the protease to react with the substrate in the presence of the inhibitor. Reactions were allowed to go for periods of 20-180 minutes (depending on the protease) and the velocities (rate of absorbance or fluorescence change versus time) were measured.

[1] = substrate S-2366, activity ranges, Table A

purified human Factor XIa, sequence (P03951 388-625): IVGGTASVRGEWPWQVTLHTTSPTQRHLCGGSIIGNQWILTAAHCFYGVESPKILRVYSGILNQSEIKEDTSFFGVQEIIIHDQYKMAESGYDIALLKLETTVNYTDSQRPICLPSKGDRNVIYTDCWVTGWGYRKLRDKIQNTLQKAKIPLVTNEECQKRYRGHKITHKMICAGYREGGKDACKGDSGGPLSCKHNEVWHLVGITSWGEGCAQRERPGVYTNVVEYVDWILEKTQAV
purified human Factor XIa, sequence (P03951 19-387 partner): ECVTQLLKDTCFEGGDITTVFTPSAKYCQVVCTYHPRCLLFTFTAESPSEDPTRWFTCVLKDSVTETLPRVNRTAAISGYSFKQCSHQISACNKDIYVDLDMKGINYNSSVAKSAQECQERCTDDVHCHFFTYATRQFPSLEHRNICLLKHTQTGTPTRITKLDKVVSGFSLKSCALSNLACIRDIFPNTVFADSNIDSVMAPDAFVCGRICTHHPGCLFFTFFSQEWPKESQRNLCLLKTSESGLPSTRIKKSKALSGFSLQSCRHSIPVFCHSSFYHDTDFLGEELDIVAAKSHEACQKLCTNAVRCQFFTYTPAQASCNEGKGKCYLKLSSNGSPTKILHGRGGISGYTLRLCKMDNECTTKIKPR

Row | Compound | Ki [1] [nM] | Ki (substrate S-2366, Table 1) [nM]
1 | O=C(O)c1ccc(NC(=O)C2c3cccc(N4CCNCC4)c3CCN2C(=O)C=Cc2c(-n3cnnn3)ccc(Cl)c2F)cc1 (stereo not drawn) [Example 12] | 5 to 10 | –
2 | O=C(O)c1ccc(NC(=O)C2c3cccc(N4CCC(N5CCNCC5)CC4)c3CCN2C(=O)/C=C/c2c(C(F)(F)F)ccc(Cl)c2F)cc1 (racemic) [Example 228] | – | < 5
3 | CC(=O)c1ccc(Cl)c(F)c1C=CC(=O)N1CCc2c(cccc2N2CCC(N3CCCC3)CC2)C1C(=O)Nc1ccc(C(=O)OCCn2cncn2)cc1 (stereo not drawn) [Example 173] | 5 to 10 | –
4 | O=C(O)c1ccc(NC(=O)C2c3cccc(N4CCC(C(=O)N5CCCC5)CC4)c3CCN2C(=O)/C=C/c2c(-n3cnnn3)ccc(Cl)c2F)cc1 (racemic) [Example 131] | – | < 5
5 | O=C(O)c1ccc(NC(=O)C2c3cccc(N4CCC(N5CCCC5)CC4)c3CCN2C(=O)C=Cc2c(C(F)(F)F)ccc(Cl)c2F)cc1 (stereo not drawn) [Example 179] | 100 to 500 | –
6 | O=C(O)c1ccc(NC(=O)C2c3cccc(N4CCC(N5CCCC5=O)CC4)c3CCN2C(=O)C=Cc2c(-n3cnnn3)ccc(Cl)c2F)cc1 (stereo not drawn) [Example 119] | – | < 5
7 | CN(C)C1CCN(c2cccc3c2CCN(C(=O)/C=C/c2c(F)cccc2C(F)(F)F)C3C(=O)Nc2ccc(C(=O)O)cc2)CC1 (racemic) [Example 224] | 5 to 10 | –
8 | CC(=O)Nc1ccc(NC(=O)c2ccc(NC(=O)C3c4cccc(N5CCNCC5)c4CCN3C(=O)/C=C/c3cc(Cl)c(F)cc3-n3cnnn3)cc2)cc1 (racemic) [Example 70] | 100 to 500 | –
9 | O=C(O)c1ccc(NC(=O)[C@H]2c3cccc(N4CCC(C(=O)N5CCCC5)CC4)c3CCN2C(=O)/C=C/c2c(-n3cnnn3)ccc(Cl)c2F)cc1 [Example 132] | 100 to 500 | –
10 | CCOC(=O)c1ccc(NC(=O)C2c3cccc(N4CCOCC4)c3CCN2C(=O)C=Cc2c(-n3cnnn3)ccc(Cl)c2F)cc1 (stereo not drawn) [Example 186] | 500 to 5000 | –
11 | CCOC(=O)c1ccc(NC(=O)C2c3cccc(N4CCC(N5CCCC5)CC4)c3CCN2C(=O)C=Cc2c(C(C)=O)ccc(Cl)c2F)cc1 (stereo not drawn) [Example 169] | – | 517
12 | CCOC(=O)c1ccc(NC(=O)[C@@H]2c3cccc(N4CCN(C)CC4=O)c3CCN2C(=O)/C=C/c2c(-n3cnnn3)ccc(Cl)c2F)cc1 [Example 192, (S,E)-Ethyl 4-(2-(3-(3-chloro-2-fluoro-6-(1H-tetrazol-1-yl)phenyl)acryloyl)-5-(4-methyl-2-oxopiperazin-1-yl)-1,2,3,4-tetrahydroisoquinoline-1-carboxamido)benzoate, TFA Salt] | 5 to 10 | –
13 | CCOC(=O)c1ccc(NC(=O)C2c3cccc(N4CCC5(CCN(C)C5=O)CC4)c3CCN2C(=O)/C=C/c2c(-n3cnnn3)ccc(Cl)c2F)cc1 (racemic) [Example 109] | 5 to 10 | –
14 | CC(C)(C)OC(=O)c1ccc(NC(=O)C2c3cccc(N4CCCN(C(=O)OC(C)(C)C)CC4)c3CCN2C(=O)/C=C/c2c(-n3cnnn3)ccc(Cl)c2F)cc1 (racemic) [Example 257] | – | 2570
15 | N[C@H]1CC[C@H](NC(=O)C2c3cccc(N4CCC(N5CCCC5)CC4)c3CCN2C(=O)/C=C/c2c(-n3cnnn3)ccc(Cl)c2F)CC1 (mixture of isomers) [Example 235] | – | 74.5
16 | CC(=O)c1ccc(Cl)c(F)c1/C=C/C(=O)N1CCc2c(cccc2N2CCS(=O)(=O)CC2)C1C(=O)Nc1ccc(C(=O)O)cc1 (racemic) [Example 215] | – | < 5
17 | O=C(O)c1ccc(NC(=O)C2c3cccc(N4CCC5(CC4)OCCO5)c3CCN2C(=O)/C=C/c2c(-n3cnnn3)ccc(Cl)c2F)cc1F (racemic) [Example 255] | < 5 | –
18 | CC(=O)c1ccc(Cl)c(F)c1C=CC(=O)N1CCc2c(cccc2N2CCC3(CCN(C)C3=O)CC2)C1C(=O)Nc1ccc(C(=O)O)cc1 (stereo not drawn) [Example 222] | < 5 | –
19 | O=C(Nc1ccc(F)cc1)C1c2cccc(N3CCNCC3)c2CCN1C(=O)/C=C/c1cc(Cl)ccc1-n1cnnn1 (stereo not drawn) [Example 2] | 100 to 500 | –
20 | COC(=O)CNC(=O)c1ccc(NC(=O)C2c3cccc(N4CCNCC4)c3CCN2C(=O)/C=C/c2cc(Cl)c(F)cc2-n2cnnn2)cc1 (racemic) [Example 74] | 100 to 500 | –
21 | CC(=O)N1CCN(c2cccc3c2CC(C)(C)N(C(=O)/C=C/c2c(-n4cnnn4)ccc(Cl)c2F)[C@@H]3C(=O)Nc2ccc(C(=O)O)cc2)CC1 [Example 204] | < 5 | –

The next lines start with the values.

Row | Ki [1] [nM] | Ki (substrate S-2366, Table 1) [nM] | Compound
22 | < 5 | – | O=C(O)c1ccc(NC(=O)[C@@H]2c3cccc(N4CCC(C(=O)N5CCOCC5)CC4)c3CCN2C(=O)/C=C/c2c(-n3cnnn3)ccc(Cl)c2F)cc1 [Example 141]
23 | < 5 | – | CN1CCN(c2cccc3c2CCN(C(=O)/C=C/c2c(-n4cnnn4)ccc(Cl)c2F)C3C(=O)Nc2ccc(C(=O)O)cc2)CCC1=O (racemic) [Example 264]
24 | < 5 | – | O=C(O)c1ccc(NC(=O)[C@@H]2c3cccc(N4CCC(C(=O)N5CCCC5)CC4)c3CCN2C(=O)/C=C/c2c(-n3cnnn3)ccc(Cl)c2F)cc1 [Example 133]
25 | < 5 | – | CC(=O)c1ccc(Cl)c(F)c1/C=C/C(=O)N1CCc2c(cccc2N2CCS(=O)(=O)CC2)[C@H]1C(=O)Nc1ccc(C(=O)O)cc1 [Example 217]
26 | < 5 | – | O=C(O)c1ccc(NC(=O)C2c3cccc(N4CCCCCC4)c3CCN2C(=O)/C=C/c2c(-n3cnnn3)ccc(Cl)c2F)cc1 (racemic) [Example 258]
27 | < 5 | – | CCOC(=O)c1cc(C)n(-c2cccc3c2CCN(C(=O)/C=C/c2c(-n4cnnn4)ccc(Cl)c2F)C3C(=O)Nc2ccc(C(=O)O)cc2)n1 (stereo not drawn) [Example 241, (E)-4-(2-(3-(3-Chloro-2-fluoro-6-(1H-tetrazol-1-yl)phenyl)acryloyl)-5-(3-(ethoxycarbonyl)-5-methyl-1H-pyrazol-1-yl)-1,2,3,4-tetrahydroisoquinoline-1-carboxamido)benzoic acid]
28 | < 5 | – | CC1(O)CCN(c2cccc3c2CCN(C(=O)C=Cc2c(-n4cnnn4)ccc(Cl)c2F)C3C(=O)Nc2ccc(C(=O)O)cc2)CC1 (stereo not drawn) [Example 268]
29 | < 5 | – | O=C(O)c1ccc(NC(=O)C2c3cccc(N4CCC5(CCN(Cc6ccccc6)C5=O)CC4)c3CCN2C(=O)/C=C/c2c(-n3cnnn3)ccc(Cl)c2F)cc1 (racemic) [Example 121]
30 | < 5 | – | N#Cc1ccc(Cl)c(F)c1C=CC(=O)N1CCc2c(cccc2N2CCC(N3CCCC3)CC2)C1C(=O)Nc1ccc(C(=O)O)cc1 (stereo not drawn) [Example 164]
31 | < 5 | – | CC1(C)Cc2c(cccc2N2CCCCC2)[C@@H](C(=O)Nc2ccc(C(=O)O)cc2)N1C(=O)/C=C/c1c(-n2cnnn2)ccc(Cl)c1F [Example 195]
32 | < 5 | – | O=C(Nc1ccc(Cl)cc1)C1c2cccc(N3CCC(N4CCCC4)CC3)c2CCN1C(=O)/C=C/c1c(-n2cnnn2)ccc(Cl)c1F (racemic) [Example 104]
33 | < 5 | – | N#CC1CCN(c2cccc3c2CCN(C(=O)/C=C/c2c(-n4cnnn4)ccc(Cl)c2F)C3C(=O)Nc2ccc(C(=O)O)cc2)CC1 (racemic) [Example 147]
34 | < 5 | – | CCOC(=O)c1ccc(NC(=O)[C@@H]2c3cccc(N4CCC(N(C)C)CC4)c3CCN2C(=O)/C=C/c2c(-n3cnnn3)ccc(Cl)c2F)cc1 [Example 129]
35 | < 5 | – | CNC(=O)N1CCCN(c2cccc3c2CCN(C(=O)/C=C/c2c(-n4cnnn4)ccc(Cl)c2F)C3C(=O)Nc2ccc(C(=O)O)cc2)CC1 (racemic) [Example 259]
36 | < 5 | – | CCOC(=O)c1ccc(NC(=O)[C@@H]2c3cccc(N4CCC(C(=O)N5CCCC5)CC4)c3CCN2C(=O)/C=C/c2c(-n3cnnn3)ccc(Cl)c2F)cc1 [Example 135]
